According to ChEMBL document CHEMBL1127385, “Synthesis and diuretic activity of alkyl- and arylguanidine analogs of N,N'-dicyclohexyl-4-morpholinecarboxamidine in rats and dogs” (J Med Chem, 1994):
Each block holds one compound with its values, some of them ahead of it.

Tests used:
Conditions in all cases: in vivo, po
Rattus norvegicus [1] = assay: Total electrolytic excretion of chlorine in urine of rats after peroral administration of 86.9 uM/Kg of drug; type: ADME, organism-based
Rattus norvegicus [2] = assay: Total electrolytic excretion of chlorine in urine of rats after peroral administration of 28.9 uM/Kg of drug; type: ADME, organism-based
Rattus norvegicus [3] = assay: Total electrolytic excretion of chlorine in urine of rats after peroral administration of 289 uM/Kg of drug; type: ADME, organism-based
Rattus norvegicus [4] = assay: Total electrolytic excretion of potassium in urine of rats after peroral administration of 86.9 uM/Kg of drug; type: ADME, organism-based
Rattus norvegicus [5] = assay: Total electrolytic excretion of potassium in urine of rats after peroral administration of 28.9 uM/Kg of drug; type: ADME, organism-based
Rattus norvegicus [6] = assay: Total electrolytic excretion of potassium in urine of rats after peroral administration of 289 uM/Kg of drug; type: ADME, organism-based
Rattus norvegicus [7] = assay: Total electrolytic excretion of sodium in urine of rats after peroral administration of 86.9 uM/Kg of drug; type: ADME, organism-based
Rattus norvegicus [8] = assay: Tested for the diuretic activity by measuring the urinary volume after peroral administering 86.9 uM/Kg of drug in rats; type: ADME, organism-based, Urine
Rattus norvegicus [9] = assay: Total electrolytic excretion of sodium in urine of rats after peroral administration of 28.9 uM/Kg of drug; type: ADME, organism-based
Rattus norvegicus [10] = assay: Total electrolytic excretion of sodium in urine of rats after peroral administration of 289 uM/Kg of drug; type: ADME, organism-based
Rattus norvegicus [11] = assay: Tested for the diuretic activity by measuring the urinary volume after peroral administering 28.9 uM/Kg of drug in rats; type: ADME, organism-based, Urine
Rattus norvegicus [12] = assay: Tested for the diuretic activity by measuring the urinary volume after peroral administering 289 uM/Kg of drug in rats; type: ADME, organism-based, Urine
Rattus norvegicus [13] = assay: Ratio of Total electrolytic excretion of sodium and potassium in urine of rats after peroral administration of 28.9 uM/Kg of drug; type: ADME, organism-based
Rattus norvegicus [14] = assay: Ratio of Total electrolytic excretion of sodium and potassium in urine of rats after peroral administration of 86.9 uM/Kg of drug; type: ADME, organism-based
Rattus norvegicus [15] = assay: Ratio of Total electrolytic excretion of sodium and potassium in urine of rats after peroral administration of uM/Kg of drug; type: ADME, organism-based
Rattus norvegicus [16] = assay: Total electrolytic excretion of chlorine in urine of rats after peroral administration of 27 uM/Kg of drug; type: ADME, organism-based
Rattus norvegicus [17] = assay: Total electrolytic excretion of chlorine in urine of rats after peroral administration of 270 uM/Kg of drug; type: ADME, organism-based
Rattus norvegicus [18] = assay: Total electrolytic excretion of potassium in urine of rats after peroral administration of 27 uM/Kg of drug; type: ADME, organism-based
Rattus norvegicus [19] = assay: Total electrolytic excretion of potassium in urine of rats after peroral administration of 270 uM/Kg of drug; type: ADME, organism-based
Rattus norvegicus [20] = assay: Total electrolytic excretion of chlorine in urine of rats after peroral administration of 80.9 uM/Kg of drug; type: ADME, organism-based
Rattus norvegicus [21] = assay: Total electrolytic excretion of potassium in urine of rats after peroral administration of 80.9 uM/Kg of drug; type: ADME, organism-based
Rattus norvegicus [22] = assay: Tested for the diuretic activity by measuring the urinary volume after peroral administering 80.9 uM/Kg of drug in rats; type: ADME, organism-based, Urine
Rattus norvegicus [23] = assay: Total electrolytic excretion of sodium in urine of rats after peroral administration of 27 uM/Kg of drug; type: ADME, organism-based
Rattus norvegicus [24] = assay: Total electrolytic excretion of sodium in urine of rats after peroral administration of 270 uM/Kg of drug; type: ADME, organism-based
Rattus norvegicus [25] = assay: Total electrolytic excretion of sodium in urine of rats after peroral administration of 80.9 uM/Kg of drug; type: ADME, organism-based
Rattus norvegicus [26] = assay: Tested for the diuretic activity by measuring the urinary volume after peroral administering 27 uM/Kg of drug in rats; type: ADME, organism-based, Urine
Rattus norvegicus [27] = assay: Tested for the diuretic activity by measuring the urinary volume after peroral administering 270 uM/Kg of drug in rats; type: ADME, organism-based, Urine
Rattus norvegicus [28] = assay: Ratio of Total electrolytic excretion of sodium and potassium in urine of rats after peroral administration of 27 uM/Kg of drug; type: ADME, organism-based
Rattus norvegicus [29] = assay: Ratio of Total electrolytic excretion of sodium and potassium in urine of rats after peroral administration of 270 uM/Kg of drug; type: ADME, organism-based
Rattus norvegicus [30] = assay: Ratio of Total electrolytic excretion of sodium and potassium in urine of rats after peroral administration of 80.9 uM/Kg of drug; type: ADME, organism-based

Excretion Cl- (Rattus norvegicus [1]): 1.78 m equiv | Excretion Cl- (Rattus norvegicus [2]): 1.49 m equiv | Excretion Cl- (Rattus norvegicus [3]): 1.51 m equiv | Excretion K+ (Rattus norvegicus [4]): 0.32 m equiv | Excretion K+ (Rattus norvegicus [5]): 0.36 m equiv | Excretion K+ (Rattus norvegicus [6]): 0.27 m equiv | Excretion Na+ (Rattus norvegicus [7]): 1.81 m equiv | V (Rattus norvegicus [8]): 11.3 mL | Excretion Na+ (Rattus norvegicus [9]): 1.32 m equiv | Excretion Na+ (Rattus norvegicus [10]): 1.59 m equiv | V (Rattus norvegicus [11]): 9.1 mL | V (Rattus norvegicus [12]): 9.2 mL | Ratio (Rattus norvegicus [13]): 3.7 | Ratio (Rattus norvegicus [14]): 5.7 | Ratio (Rattus norvegicus [15]): 5.5
Structure (SMILES): C1CCC(/N=C(/NC2CCCCC2)N2CCSCC2)CC1

Excretion Cl- (Rattus norvegicus [16]): 0.96 m equiv | Excretion Cl- (Rattus norvegicus [17]): 1.01 m equiv | Excretion K+ (Rattus norvegicus [18]): 0.31 m equiv | Excretion K+ (Rattus norvegicus [19]): 0.21 m equiv | Excretion Cl- (Rattus norvegicus [20]): 1.31 m equiv | Excretion K+ (Rattus norvegicus [21]): 0.33 m equiv | V (Rattus norvegicus [22]): 8.4 mL | Excretion Na+ (Rattus norvegicus [23]): 0.85 m equiv | Excretion Na+ (Rattus norvegicus [24]): 1.12 m equiv | Excretion Na+ (Rattus norvegicus [25]): 1.28 m equiv | V (Rattus norvegicus [26]): 6.6 mL | V (Rattus norvegicus [27]): 5.6 mL | Ratio (Rattus norvegicus [28]): 2.7 [Na+]/[K+] | Ratio (Rattus norvegicus [29]): 5.2 [Na+]/[K+] | Ratio (Rattus norvegicus [30]): 3.9 [Na+]/[K+]
Structure (SMILES): CC(C)CC/N=C(/NC1CCCCC1)N1CCOCC1
